Data on 34 molecules can be found in US9586948B2, “Inhibitors of IRAK4 activity” (MERCK SHARP & DOHME CORP., priority 2012, dated 2017).

pIC50: −log10 of the molar value.

The target of the test is GST tagged IRAK4 (Homo sapiens (Human), UniProt Q9NWZ3). The experiment in a line: Determination of IRAK4 kinase activity (IMAP fluorescence polarization). Format: biochemical. The conditions noted are these: 0.5 nM GST tagged IRAK4, 100 nM fluorescent peptide substrate RP7030, 100 μM ATP, 30 minutes at 25° C. On the procedure: The kinase activity of IRAK4 is determined by its ability to catalyze the phosphorylation of a fluorescent polypeptide substrate. The extent of phosphorylation is measured using IMAP technology (Molecular Devices) where the phosphorylated fluorescent substrate binds to the large M(III)-based nanoparticles which reduces the rotational speed of the substrate and thus increases its fluorescent polarization (FP).
Chain of GST tagged IRAK4 (Q9NWZ3 whole entry): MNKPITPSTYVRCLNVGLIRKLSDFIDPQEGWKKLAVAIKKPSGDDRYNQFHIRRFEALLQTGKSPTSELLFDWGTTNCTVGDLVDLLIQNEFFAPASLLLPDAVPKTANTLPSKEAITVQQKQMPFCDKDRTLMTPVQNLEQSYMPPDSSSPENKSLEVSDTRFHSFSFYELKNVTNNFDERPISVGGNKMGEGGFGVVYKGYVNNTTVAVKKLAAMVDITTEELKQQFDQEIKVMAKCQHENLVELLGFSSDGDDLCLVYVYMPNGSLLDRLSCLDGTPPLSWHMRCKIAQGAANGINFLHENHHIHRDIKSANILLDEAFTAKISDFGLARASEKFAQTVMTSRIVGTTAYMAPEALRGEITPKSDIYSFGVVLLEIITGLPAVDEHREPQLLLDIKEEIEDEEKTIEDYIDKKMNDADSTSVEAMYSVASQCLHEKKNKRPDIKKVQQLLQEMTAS
Procedure: A 20 μl reaction mixture contains 10 mM TriHCl, pH 7.2, 0.5 nM GST tagged IRAK4 (SignalChem), 100 nM fluorescent peptide substrate (RP7030, Molecular Devices), 100 μM ATP, 1 mM DTT, 1 mM MgCl2, and 0.01% Tween 20. The reaction is initiated by the addition of ATP. After incubation for 30 minutes at 25° C., 60 μl of Progressive IMAP Reagent (Molecular Devices) is added to stop the reaction. Change in RP7030's FP is determined by a FP reader (Analyst HT, LJL BioSystems).
For orientation: In fluorescence polarisation assays a small probe gives low polarisation when free and higher when bound to something large.

With `Cn1cc(NC(=O)c2cccc(-c3ccnc(NCC4CC4)c3)n2)c(C(N)=O)n1` [Example 1, N-(3-carbamoyl-1-methyl-1H-pyrazol-4-yl)-2′-((cyclopropylmethyl)amino)-[2,4′-bipyridine]-6-carboxamide], the pIC50 (in general, the negative decadic logarithm of the IC50, by convention in mol/L) was 7.13. The same measure for `Cn1cc(NC(=O)c2cccc(-n3cccc3)n2)c(C(N)=O)n1` [Example 2, N-(3-carbamoyl-1-methyl-1H-pyrazol-4-yl)-6-(1H-pyrrol-1-yl)picolinamide]: 6.19. The same measure for `Cn1cc(NC(=O)c2cccc(-c3ccnc(NC(=O)OC(C)(C)C)c3)n2)c(C(N)=O)n1` [Example 4, tert-butyl(6-((3-carbamoyl-1-methyl-1H-pyrazol-4-yl)carbamoyl)-[2,4′-bipyridin]-2′-yl)carbamate]: 6.11; for `Cn1cc(NC(=O)c2ccnc(-c3ccnc(NCC4CC4)c3)c2)c(C(N)=O)n1` [Example 5, N-(3-carbamoyl-1-methyl-1H-pyrazol-4-yl)-2′-(cyclopropylmethylamino)-2,4′-bipyridine-4-carboxamide]: 5.84; for `Cn1cc(NC(=O)c2cccc(-c3ccnc(N)c3)n2)c(C(N)=O)n1` [Example 6, 2′-amino-N-(3-carbamoyl-1-methyl-1H-pyrazol-4-yl)-[2,4′-bipyridine]-6-carboxamide]: 7.00. Turning to `Cn1cc(NC(=O)c2cncc(-c3ccnc(NCC4CC4)c3)c2)c(C(N)=O)n1` [Example 7, N-(3-carbamoyl-1-methyl-1H-pyrazol-4-yl)-2′-(cyclopropylmethylamino)-3,4′-bipyridine-5-carboxamide], the pIC50 is 5.96. Molecule `Cn1ncc(NC(=O)c2cccc(-c3ccnc(NCC4CC4)c3)n2)c1C(N)=O` [Example 8, N-(5-carbamoyl-1-methyl-1H-pyrazol-4-yl)-2′-(cyclopropylmethylamino)-2,4′-bipyridine-6-carboxamide] showed a pIC50 of 5.56. The same measure for `Cn1cc(NC(=O)c2cccc(N3CCOCC3)n2)c(C(N)=O)n1` [Example 9, N-(3-carbamoyl-1-methyl-1H-pyrazol-4-yl)-6-morpholinopicolinamide]: 5.49; for `Cn1cc(NC(=O)c2cccc(N3CCNCC3)n2)c(C(N)=O)n1` [Example 10, N-(3-carbamoyl-1-methyl-1H-pyrazol-4-yl)-6-(piperazin-1-yl)picolinamide]: 5.46.

`Cn1cc(NC(=O)c2cccc(-c3ccncc3)n2)c(C(N)=O)n1` [Example 11, N-(3-carbamoyl-1-methyl-1H-pyrazol-4-yl)-2,4′-bipyridine-6-carboxamide] showed a pIC50 of 5.72. The same measure for `Cn1cc(NC(=O)c2cccc(-c3cccnc3)n2)c(C(N)=O)n1` [Example 12, N-(3-carbamoyl-1-methyl-1H-pyrazol-4-yl)-[2,3′-bipyridine]-6-carboxamide]: 6.67; for `COc1cccc(-c2cccc(C(=O)Nc3cn(C)nc3C(N)=O)n2)c1` [Example 13, N-(3-carbamoyl-1-methyl-1H-pyrazol-4-yl)-6-(3-methoxyphenyl)picolinamide]: 6.20. The same measure for `COCCNc1cc(-c2cccc(C(=O)Nc3cn(C)nc3C(N)=O)n2)ccn1` [Example 15, N-(3-carbamoyl-1-methyl-1H-pyrazol-4-yl)-2′-((2-methoxyethyl)amino)-[2,4′-bipyridine]-6-carboxamide]: 6.73; for `Cn1cc(NC(=O)c2cccc(-c3ccnc(NCC(F)F)c3)n2)c(C(N)=O)n1` [Example 16, N-(3-carbamoyl-1-methyl-1H-pyrazol-4-yl)-2′-((2,2-difluoroethyl)amino)-[2,4′-bipyridine]-6-carboxamide]: 6.71.

`Cn1cc(NC(=O)c2cccc(-c3ccnc(NCC4CCOCC4)c3)n2)c(C(N)=O)n1` [Example 17, N-(3-carbamoyl-1-methyl-1H-pyrazol-4-yl)-2′-(((tetrahydro-2H-pyran-4-yl)methyl)amino)-[2,4′-bipyridine]-6-carboxamide] gave a pIC50 of 6.32. Under `Cn1cc(NC(=O)c2cccc(-c3ccnc(NCC(F)(F)F)c3)n2)c(C(N)=O)n1` [Example 18, N-(3-carbamoyl-1-methyl-1H-pyrazol-4-yl)-2′-((2,2,2-trifluoroethyl)amino)-[2,4′-bipyridine]-6-carboxamide] stands 6.90; under `Cn1cc(NC(=O)c2ccnc(-c3ccnc(NCC4CC4)c3)n2)c(C(N)=O)n1` [Example 19, N-(3-carbamoyl-1-methyl-1H-pyrazol-4-yl)-2-(2-((cyclopropylmethyl)amino)pyridin-4-yl)pyrimidine-4-carboxamide], 6.55.

For the molecule `COc1ncccc1-c1cccc(C(=O)Nc2cn(C)nc2C(N)=O)n1` [Example 20, N-(3-carbamoyl-1-methyl-1H-pyrazol-4-yl)-2′-methoxy-[2,3′-bipyridine]-6-carboxamide], the pIC50 is 5.67. The same measure for `Cn1cc(NC(=O)c2cccc(-c3cccc(OC(F)(F)F)c3)n2)c(C(N)=O)n1` [Example 21, N-(3-carbamoyl-1-methyl-1H-pyrazol-4-yl)-6-(3-(trifluoromethoxy)phenyl)picolinamide]: 5.65; for `Cn1cc(NC(=O)c2cccc(-c3ccsc3)n2)c(C(N)=O)n1` [Example 22, N-(3-carbamoyl-1-methyl-1H-pyrazol-4-yl)-6-(thiophen-3-yl)picolinamide]: 6.44; for `Cn1cc(NC(=O)c2cccc(-c3ccc(N4CCOCC4)nc3)n2)c(C(N)=O)n1` [Example 23, N-(3-carbamoyl-1-methyl-1H-pyrazol-4-yl)-6′-morpholino-[2,3′-bipyridine]-6-carboxamide]: 5.96. As for `CNC(=O)c1cccc(-c2cccc(C(=O)Nc3cn(C)nc3C(N)=O)n2)c1` [Example 24, N-(3-carbamoyl-1-methyl-1H-pyrazol-4-yl)-6-(3-(methylcarbamoyl)phenyl)picolinamide], the pIC50 is 6.70. For `Cn1cc(-c2cccc(C(=O)Nc3cn(C)nc3C(N)=O)n2)cn1` [Example 25, N-(3-carbamoyl-1-methyl-1H-pyrazol-4-yl)-6-(1-methyl-1H-pyrazol-4-yl)picolinamide], the pIC50 was 7.49. In the case of `Cn1cc(NC(=O)c2cccc(C3=CCS(=O)(=O)CC3)n2)c(C(N)=O)n1` [Example 26, N-(3-carbamoyl-1-methyl-1H-pyrazol-4-yl)-6-(1,1-dioxido-3,6-dihydro-2H-thiopyran-4-yl)picolinamide], the pIC50 was 5.89. In turn, `Cn1cc(NC(=O)c2cccc(C3=CCCOC3)n2)c(C(N)=O)n1` [Example 27, N-(3-carbamoyl-1-methyl-1H-pyrazol-4-yl)-6-(5,6-dihydro-2H-pyran-3-yl)picolinamide] gave a pIC50 of 6.87. Regarding `Cn1cc(NC(=O)c2cccc(-c3ccc(C4CC4)nc3)n2)c(C(N)=O)n1` [Example 28, N-(3-carbamoyl-1-methyl-1H-pyrazol-4-yl)-6′-cyclopropyl-[2,3′-bipyridine]-6-carboxamide], the pIC50 was 7.03.

Turning to `Cn1cc(NC(=O)c2cccc(-c3cncc(Cl)c3)n2)c(C(N)=O)n1` [Example 29, N-(3-carbamoyl-1-methyl-1H-pyrazol-4-yl)-5′-chloro-[2,3′-bipyridine]-6-carboxamide], the negative-log IC50 (pIC50) is 7.04. In turn, `Cn1cc(NC(=O)c2cccc(C3=CCOCC3)n2)c(C(N)=O)n1` [Example 30, N-(3-carbamoyl-1-methyl-1H-pyrazol-4-yl)-6-(3,6-dihydro-2H-pyran-4-yl)picolinamide] gave a pIC50 of 6.37.

For `Cn1cc(NC(=O)c2cccc(-c3cnccc3Cl)n2)c(C(N)=O)n1` [Example 31, N-(3-carbamoyl-1-methyl-1H-pyrazol-4-yl)-4′-chloro-[2,3′-bipyridine]-6-carboxamide], the pIC50 is 6.21.

`CN1CCC(c2cccc(C(=O)Nc3cn(C)nc3C(N)=O)n2)=CC1=O` [Example 32, N-(3-carbamoyl-1-methyl-1H-pyrazol-4-yl)-1′-methyl-6′-oxo-1′,2′,3′,6′-tetrahydro-[2,4′-bipyridine]-6-carboxamide] showed a pIC50 of 7.09.

The molecule `CN1CCC=C(c2cccc(C(=O)Nc3cn(C)nc3C(N)=O)n2)C1` [Example 33, N-(3-carbamoyl-1-methyl-1H-pyrazol-4-yl)-1′-methyl-1′,2′,5′,6′-tetrahydro-[2,3′-bipyridine]-6-carboxamide] showed a pIC50 of 6.13. Under `CN1CCC(CNC(=O)c2nn(C)cc2NC(=O)c2cccc(-c3ccnc(NCC4CC4)c3)n2)C1` (stereo not shown) [Example 34, 2′-((cyclopropylmethyl)amino)-N-(1-methyl-3-(((1-methylpyrrolidin-3-yl)methyl)carbamoyl)-1H-pyrazol-4-yl)-[2,4′-bipyridine]-6-carboxamide] stands 6.14; under `Cn1cc(NC(=O)c2cccc(-c3ccnc(NCC4CC4)c3)n2)c(C(=O)NCCN2CCCC2)n1` [Example 35, 2′-((cyclopropylmethyl)amino)-N-(1-methyl-3-((2-(pyrrolidin-1-yl)ethyl)carbamoyl)-1H-pyrazol-4-yl)-[2,4′-bipyridine]-6-carboxamide], 5.97.

`Cn1cc(NC(=O)c2cccc(-c3ccnc(NCC4CC4)c3)n2)c(C(=O)NCc2ncc[nH]2)n1` [Example 36, N-(3-(((1H-imidazol-2-yl)methyl)carbamoyl)-1-methyl-1H-pyrazol-4-yl)-2′-((cyclopropylmethyl)amino)-[2,4′-bipyridine]-6-carboxamide] had a pIC50 of 5.81.
